Among the data in patent US20100087392A1 (Pierre Fabre Medicament, priority 2007, published 2010) are AUC, Cmax and Tmax values, retold here.

Structures are written as SMILES.

A short description of the data set: in vivo. The note with it: rat, po, 20 mg/kg. Here is the method: Chromatographic Conditions: • Column: Synergi Fusion-RP 80, 2×50 mm, 4 microns
Mobile Phase: • Channel A: 13.3 mM ammonium formate/6.7 mM formic acid in water • Channel B: 6 mM ammonium formate/3 mM formic acid in water/acetonitrile (1/9, v/v)
• Plot of the curve/obtaining the plasma profile=plasma concentration as a function of the time post administration

As a reminder, the AUC is concentration integrated over time. One may read the Cmax as the peak of the concentration-time curve. As a reminder, the Tmax is the time at which the peak concentration occurs. With `CC(C)Cc1ccc(C(C)C(=O)O)cc1` (stereo not drawn) [IBU alone, ibuprofen], the AUC is 7190 ng·h/mL, the Cmax was 2280 ng/mL and the Tmax turned out to be 30 min.
